Values quoted from earlier work as cited in patent US20090202609A1, “MEDICAL DEVICE WITH COATING COMPOSITION” (priority 2008, published 2009).

Key:
[1] = systemic
bacteria = details: effective systemic concentration

Q: For `NC[C@H]1O[C@H](O[C@H]2[C@H](O)[C@@H](O[C@H]3O[C@H](CO)[C@@H](O)[C@H](N)[C@H]3O)[C@H](N)C[C@@H]2N)[C@H](N)C[C@@H]1O` [tobramycin], which system-wide toxic concentration [1] is on record?
A: Its system-wide toxic concentration is “about 400 mcg/ml”.

Q: And the “effective concentration to actively control bacteria” value (bacteria)?
A: Its value is ≤ 4 µg/mL.
